Source: ChEMBL document CHEMBL1134894, “Fused azaindole derivatives: molecular design, synthesis and in vitro pharmacology leading to the preferential dopamine D3 receptor agonist FAUC 725” (Bioorg Med Chem Lett, 2002)

Tests used:
D(2) dopamine receptor [1] = target: T1, D(2) dopamine receptor (Bos taurus, UniProt P20288)
D(4) dopamine receptor [2] = target: T2, D(4) dopamine receptor (Homo sapiens, UniProt P21917); assay: Effective concentration required for agonistic activity against human D4.2 receptor; type: functional
T2 sequence (P21917 whole entry): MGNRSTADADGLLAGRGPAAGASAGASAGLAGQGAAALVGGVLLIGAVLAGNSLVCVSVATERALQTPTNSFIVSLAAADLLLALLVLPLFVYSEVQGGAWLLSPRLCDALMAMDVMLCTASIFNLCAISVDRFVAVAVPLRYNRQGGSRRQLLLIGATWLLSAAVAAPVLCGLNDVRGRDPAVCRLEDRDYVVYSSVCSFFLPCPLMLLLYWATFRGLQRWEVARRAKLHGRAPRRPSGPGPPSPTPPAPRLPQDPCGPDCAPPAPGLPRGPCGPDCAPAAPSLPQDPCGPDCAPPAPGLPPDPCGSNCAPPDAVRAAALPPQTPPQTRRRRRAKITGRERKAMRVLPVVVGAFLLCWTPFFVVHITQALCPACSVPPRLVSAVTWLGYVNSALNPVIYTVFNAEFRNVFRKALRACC

D(4) dopamine receptor [3] = target: T2, D(4) dopamine receptor; assay: Binding affinity of compound measured using [3H]spiperone for the cloned human dopamine receptor D4.4 (high/low affinity is given as 16/1300)
D(2) dopamine receptor [4] = target: T1, D(2) dopamine receptor; assay: Binding affinity of compound against Dopamine receptor D2 was measured using [3H]pramipexole in Bovine striatal membranes; type: cell membranes, Striatum, Membrane
D(2) dopamine receptor [5] = target: T3, D(2) dopamine receptor (Rattus norvegicus, UniProt P61169); assay: Effective concentration required for agonistic activity against rat D2 short receptor; type: functional
T3 sequence (P61169 whole entry): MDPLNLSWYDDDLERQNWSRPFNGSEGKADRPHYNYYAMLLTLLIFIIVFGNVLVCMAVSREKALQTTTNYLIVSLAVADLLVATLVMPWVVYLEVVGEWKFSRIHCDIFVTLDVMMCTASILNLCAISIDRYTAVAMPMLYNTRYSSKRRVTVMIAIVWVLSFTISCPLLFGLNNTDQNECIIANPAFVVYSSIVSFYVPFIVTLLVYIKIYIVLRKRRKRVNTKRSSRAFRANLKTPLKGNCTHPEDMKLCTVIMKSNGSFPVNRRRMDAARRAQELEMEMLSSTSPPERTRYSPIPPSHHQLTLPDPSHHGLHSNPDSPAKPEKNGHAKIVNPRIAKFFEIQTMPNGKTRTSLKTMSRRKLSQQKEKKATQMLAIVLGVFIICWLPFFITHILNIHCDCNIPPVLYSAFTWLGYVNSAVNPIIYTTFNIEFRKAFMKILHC

D(2) dopamine receptor [6] = target: T3, D(2) dopamine receptor; assay: Effective concentration required for agonistic activity against rat Dopamine receptor D2L; type: functional
D(4) dopamine receptor [7] = target: T2, D(4) dopamine receptor; assay: Binding affinity of compound measured using [3H]spiperone for the cloned human dopamine receptor D4.4 (high/low affinity is given as 50/2200)
D(2) dopamine receptor [8] = target: T4, D(2) dopamine receptor (Homo sapiens, UniProt P14416); assay: Binding affinity of compound measured using [3H]spiperone for the cloned human Dopamine receptor D2L (high/low affinity is given as 85/6400)
T4 sequence (P14416 whole entry): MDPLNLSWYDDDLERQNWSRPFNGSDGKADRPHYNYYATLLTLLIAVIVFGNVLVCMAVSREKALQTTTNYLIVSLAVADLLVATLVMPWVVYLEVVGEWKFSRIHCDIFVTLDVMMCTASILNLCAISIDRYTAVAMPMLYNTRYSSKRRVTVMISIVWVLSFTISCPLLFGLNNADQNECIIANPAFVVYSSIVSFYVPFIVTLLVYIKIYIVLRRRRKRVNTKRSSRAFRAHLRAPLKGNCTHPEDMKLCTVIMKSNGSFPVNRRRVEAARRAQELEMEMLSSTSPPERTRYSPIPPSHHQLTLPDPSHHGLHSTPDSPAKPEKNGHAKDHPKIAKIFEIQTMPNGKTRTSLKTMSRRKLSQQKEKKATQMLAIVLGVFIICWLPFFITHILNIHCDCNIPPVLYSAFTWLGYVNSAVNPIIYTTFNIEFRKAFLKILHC

D(2) dopamine receptor [9] = target: T4, D(2) dopamine receptor; assay: Binding affinity of compound measured using [3H]spiperone for the cloned human dopamine receptor D2 short (high/low affinity is given as 35/3700)
D(1A) dopamine receptor = D(1A) dopamine receptor (Bos taurus, UniProt Q95136); assay: Binding affinity of compound measured against Dopamine receptor D1 from bovine striatal membranes using radioligand [3H]-SCH- 23390
Sequence of D(1A) dopamine receptor (Q95136 whole entry): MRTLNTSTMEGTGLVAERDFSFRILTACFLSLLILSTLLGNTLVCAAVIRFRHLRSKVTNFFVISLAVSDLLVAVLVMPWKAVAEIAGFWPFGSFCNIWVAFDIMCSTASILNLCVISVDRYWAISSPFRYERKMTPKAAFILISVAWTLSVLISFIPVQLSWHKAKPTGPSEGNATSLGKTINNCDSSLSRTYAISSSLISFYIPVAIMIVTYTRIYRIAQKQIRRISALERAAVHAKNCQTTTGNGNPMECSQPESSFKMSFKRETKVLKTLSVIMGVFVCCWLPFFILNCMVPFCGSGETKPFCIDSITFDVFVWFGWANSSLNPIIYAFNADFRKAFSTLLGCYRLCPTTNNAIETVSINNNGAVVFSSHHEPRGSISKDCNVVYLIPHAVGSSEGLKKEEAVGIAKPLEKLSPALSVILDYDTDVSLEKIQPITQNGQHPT

D(3) dopamine receptor [10] = target: T5, D(3) dopamine receptor (Homo sapiens, UniProt P35462); assay: Effective concentration required for agonistic activity against human Dopamine receptor D3
T5 sequence (P35462 whole entry): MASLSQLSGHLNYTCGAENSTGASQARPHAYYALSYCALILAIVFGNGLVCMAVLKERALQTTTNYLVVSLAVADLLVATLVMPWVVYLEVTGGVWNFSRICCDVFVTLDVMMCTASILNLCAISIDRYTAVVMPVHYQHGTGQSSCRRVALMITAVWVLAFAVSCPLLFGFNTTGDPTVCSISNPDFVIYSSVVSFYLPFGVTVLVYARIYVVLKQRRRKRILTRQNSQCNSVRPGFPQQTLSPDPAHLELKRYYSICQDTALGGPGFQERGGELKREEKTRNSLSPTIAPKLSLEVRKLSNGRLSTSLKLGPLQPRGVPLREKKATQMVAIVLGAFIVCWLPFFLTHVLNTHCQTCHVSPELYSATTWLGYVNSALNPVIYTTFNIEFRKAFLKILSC

D(3) dopamine receptor [11] = target: T5, D(3) dopamine receptor
D(2) dopamine receptor [12] = target: T4, D(2) dopamine receptor; assay: Binding affinity of compound measured using [3H]spiperone for the cloned human dopamine receptor D2 short (high/low affinity is given as 130/50000)
D(4) dopamine receptor [13] = target: T2, D(4) dopamine receptor; assay: Binding affinity of compound measured using [3H]spiperone for the cloned human dopamine receptor D4.4 (high/low affinity is given as 87/23000)
D(3) dopamine receptor [14] = target: T5, D(3) dopamine receptor; assay: Effective concentration required for agonistic activity against human D3 receptor; type: functional
D(2) dopamine receptor [15] = target: T4, D(2) dopamine receptor; assay: Binding affinity of compound measured using [3H]spiperone for the cloned human dopamine receptor D2 long (high/low affinity is given as 230/53000)
D(2) dopamine receptor [16] = target: T3, D(2) dopamine receptor; assay: Effective concentration required for agonistic activity against rat D2 long receptor; type: functional
D(3) dopamine receptor [17] = target: T5, D(3) dopamine receptor; remark: listed apart in the source
Description: Binding affinity of compound measured using [3H]spiperone for the cloned human Dopamine receptor D3 (high/low affinity is given as 16/16000)

T1 sequence (P20288 whole entry): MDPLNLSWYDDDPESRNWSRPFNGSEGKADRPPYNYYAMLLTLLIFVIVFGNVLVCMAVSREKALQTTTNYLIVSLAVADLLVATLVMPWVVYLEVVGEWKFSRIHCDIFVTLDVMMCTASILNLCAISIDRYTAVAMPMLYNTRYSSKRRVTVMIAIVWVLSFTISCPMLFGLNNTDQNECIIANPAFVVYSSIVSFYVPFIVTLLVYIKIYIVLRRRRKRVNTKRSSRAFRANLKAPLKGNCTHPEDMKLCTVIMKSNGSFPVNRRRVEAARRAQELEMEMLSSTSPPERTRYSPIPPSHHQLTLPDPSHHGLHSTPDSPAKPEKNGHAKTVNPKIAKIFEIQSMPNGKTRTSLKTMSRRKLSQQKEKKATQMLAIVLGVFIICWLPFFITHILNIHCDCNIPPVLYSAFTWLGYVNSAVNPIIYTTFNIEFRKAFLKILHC

CCCN[C@H]1CCc2nc(N)sc2C1 [PRAMIPEXOLE]
Kd (D(2) dopamine receptor [1]): 1.6 nM

CCCN1CCC[C@@H](c2cccc(O)c2)C1 [PRECLAMOL]
EC50 (D(4) dopamine receptor [2]): 60 nM | Ki (D(4) dopamine receptor [3]): 16 nM | Ki (D(2) dopamine receptor [4]): 52 nM

CCCN(CCC)[C@H]1CCc2nn3ccccc3c2C1
EC50 (D(2) dopamine receptor [5]): 47 nM | EC50 (D(2) dopamine receptor [6]): 16 nM | Ki (D(4) dopamine receptor [7]): 50 nM | EC50 (D(4) dopamine receptor [2]): 430 nM | Ki (D(2) dopamine receptor [4]): 8.6 nM | Ki (D(2) dopamine receptor [8]): 85 nM | Ki (D(2) dopamine receptor [9]): 35 nM | Ki (D(1A) dopamine receptor): 18000 nM | EC50 (D(3) dopamine receptor [10]): 2.8 nM | Ki (D(3) dopamine receptor [11]): 0.54 nM

CCCN1CCc2nn3ccccc3c2C1
Ki (D(2) dopamine receptor [12]): 130 nM | EC50 (D(2) dopamine receptor [5]): > 1000 nM | Ki (D(4) dopamine receptor [13]): 87 nM | EC50 (D(3) dopamine receptor [14]): > 1000 nM | Ki (D(2) dopamine receptor [15]): 230 nM | EC50 (D(4) dopamine receptor [2]): > 1000 nM | EC50 (D(2) dopamine receptor [16]): > 1000 nM | Ki (D(2) dopamine receptor [4]): 3100 nM | Ki (D(1A) dopamine receptor): 21000 nM | Ki (D(3) dopamine receptor [17]): 16 nM
